Patent publication US20220170930A1, “METHOD FOR SCREENING COMPOUND FOR TREATING OR PREVENTING POLYQ-RELATED NEURODEGENERATIVE DISEASES” (FUDAN UNIVERSITY, priority 2019, published 2022)

Legend:
HTTexon1-Q25-MBP = target: T1, HTTexon1-Q25-MBP (Homo sapiens, UniProt P42858, DUP35-38); assay: OI-RD affinity with HTTexon1-Q25; format: binding
T1 construct: made in house; host or cells: mammalian expression vector pTT5SH8Q2
Method: OI-RD images before and after incubation with the target protein was obtained following the method in (1).
The difference images of the above steps (1), (2), (3) (the image after incubation minus the image before incubation) was analyzed respectively.
Each compound was printed in triplicates on the microarray. 01-RD was used to measure the affinity reaction parameters of compounds with HTTexon1-Q72 and HTTexon1-Q25.

LC3B = target: T2, LC3B (Homo sapiens, UniProt Q9GZQ8); assay: MST affinity with LC3B; format: binding; settings: MST, LC3B, protein 500 nM; read-out: Kd
T2 construct: His8 (N, cleaved yes); GST (from pGEX-6P1) (N, cleaved yes); made in house; host or cells: E. coli BL21(DE3)pLsyS

wtHTT = target: T3, wtHTT (Mus musculus, UniProt P42859); assay: Western-blot wtHTT level in primary cultured cortical neurons; format: cell-based; settings: Hdh^Q7/Q7 cortical neurons, 2 days
T3 construct: endogenous in cells; host or cells: primary cortical neurons of newborn Hdh Q140/Q7 and Hdh Q7/Q7 mice
Method: Primary cultured cortical neurons: The brains of Hdh^Q140/Q7 and Hdh^Q7/Q7 newborn mice (P0) were dissected, digested, dissociated, and cultured.
(1) The primary cultured Hdh^Q140/Q7 and Hdh^Q7/Q7 mouse cortical neuron cells were treated with the compound for 2 days.

mHTT = target: T4, mHTT (Homo sapiens, UniProt P42858, INS38QQQQQQQQQQQQQQQQQQQQQQQQQQ); assay: HTRF mHTT level in HD patient iPSC-derived neurons; format: cell-based; settings: iPSC-derived neurons (Q47)
T4 construct: endogenous in cells; host or cells: HD patient iPSC-derived neurons (Q47)
T4 sequence (P42858 other isoform, or with tags, fused parts or gaps with the stated changes): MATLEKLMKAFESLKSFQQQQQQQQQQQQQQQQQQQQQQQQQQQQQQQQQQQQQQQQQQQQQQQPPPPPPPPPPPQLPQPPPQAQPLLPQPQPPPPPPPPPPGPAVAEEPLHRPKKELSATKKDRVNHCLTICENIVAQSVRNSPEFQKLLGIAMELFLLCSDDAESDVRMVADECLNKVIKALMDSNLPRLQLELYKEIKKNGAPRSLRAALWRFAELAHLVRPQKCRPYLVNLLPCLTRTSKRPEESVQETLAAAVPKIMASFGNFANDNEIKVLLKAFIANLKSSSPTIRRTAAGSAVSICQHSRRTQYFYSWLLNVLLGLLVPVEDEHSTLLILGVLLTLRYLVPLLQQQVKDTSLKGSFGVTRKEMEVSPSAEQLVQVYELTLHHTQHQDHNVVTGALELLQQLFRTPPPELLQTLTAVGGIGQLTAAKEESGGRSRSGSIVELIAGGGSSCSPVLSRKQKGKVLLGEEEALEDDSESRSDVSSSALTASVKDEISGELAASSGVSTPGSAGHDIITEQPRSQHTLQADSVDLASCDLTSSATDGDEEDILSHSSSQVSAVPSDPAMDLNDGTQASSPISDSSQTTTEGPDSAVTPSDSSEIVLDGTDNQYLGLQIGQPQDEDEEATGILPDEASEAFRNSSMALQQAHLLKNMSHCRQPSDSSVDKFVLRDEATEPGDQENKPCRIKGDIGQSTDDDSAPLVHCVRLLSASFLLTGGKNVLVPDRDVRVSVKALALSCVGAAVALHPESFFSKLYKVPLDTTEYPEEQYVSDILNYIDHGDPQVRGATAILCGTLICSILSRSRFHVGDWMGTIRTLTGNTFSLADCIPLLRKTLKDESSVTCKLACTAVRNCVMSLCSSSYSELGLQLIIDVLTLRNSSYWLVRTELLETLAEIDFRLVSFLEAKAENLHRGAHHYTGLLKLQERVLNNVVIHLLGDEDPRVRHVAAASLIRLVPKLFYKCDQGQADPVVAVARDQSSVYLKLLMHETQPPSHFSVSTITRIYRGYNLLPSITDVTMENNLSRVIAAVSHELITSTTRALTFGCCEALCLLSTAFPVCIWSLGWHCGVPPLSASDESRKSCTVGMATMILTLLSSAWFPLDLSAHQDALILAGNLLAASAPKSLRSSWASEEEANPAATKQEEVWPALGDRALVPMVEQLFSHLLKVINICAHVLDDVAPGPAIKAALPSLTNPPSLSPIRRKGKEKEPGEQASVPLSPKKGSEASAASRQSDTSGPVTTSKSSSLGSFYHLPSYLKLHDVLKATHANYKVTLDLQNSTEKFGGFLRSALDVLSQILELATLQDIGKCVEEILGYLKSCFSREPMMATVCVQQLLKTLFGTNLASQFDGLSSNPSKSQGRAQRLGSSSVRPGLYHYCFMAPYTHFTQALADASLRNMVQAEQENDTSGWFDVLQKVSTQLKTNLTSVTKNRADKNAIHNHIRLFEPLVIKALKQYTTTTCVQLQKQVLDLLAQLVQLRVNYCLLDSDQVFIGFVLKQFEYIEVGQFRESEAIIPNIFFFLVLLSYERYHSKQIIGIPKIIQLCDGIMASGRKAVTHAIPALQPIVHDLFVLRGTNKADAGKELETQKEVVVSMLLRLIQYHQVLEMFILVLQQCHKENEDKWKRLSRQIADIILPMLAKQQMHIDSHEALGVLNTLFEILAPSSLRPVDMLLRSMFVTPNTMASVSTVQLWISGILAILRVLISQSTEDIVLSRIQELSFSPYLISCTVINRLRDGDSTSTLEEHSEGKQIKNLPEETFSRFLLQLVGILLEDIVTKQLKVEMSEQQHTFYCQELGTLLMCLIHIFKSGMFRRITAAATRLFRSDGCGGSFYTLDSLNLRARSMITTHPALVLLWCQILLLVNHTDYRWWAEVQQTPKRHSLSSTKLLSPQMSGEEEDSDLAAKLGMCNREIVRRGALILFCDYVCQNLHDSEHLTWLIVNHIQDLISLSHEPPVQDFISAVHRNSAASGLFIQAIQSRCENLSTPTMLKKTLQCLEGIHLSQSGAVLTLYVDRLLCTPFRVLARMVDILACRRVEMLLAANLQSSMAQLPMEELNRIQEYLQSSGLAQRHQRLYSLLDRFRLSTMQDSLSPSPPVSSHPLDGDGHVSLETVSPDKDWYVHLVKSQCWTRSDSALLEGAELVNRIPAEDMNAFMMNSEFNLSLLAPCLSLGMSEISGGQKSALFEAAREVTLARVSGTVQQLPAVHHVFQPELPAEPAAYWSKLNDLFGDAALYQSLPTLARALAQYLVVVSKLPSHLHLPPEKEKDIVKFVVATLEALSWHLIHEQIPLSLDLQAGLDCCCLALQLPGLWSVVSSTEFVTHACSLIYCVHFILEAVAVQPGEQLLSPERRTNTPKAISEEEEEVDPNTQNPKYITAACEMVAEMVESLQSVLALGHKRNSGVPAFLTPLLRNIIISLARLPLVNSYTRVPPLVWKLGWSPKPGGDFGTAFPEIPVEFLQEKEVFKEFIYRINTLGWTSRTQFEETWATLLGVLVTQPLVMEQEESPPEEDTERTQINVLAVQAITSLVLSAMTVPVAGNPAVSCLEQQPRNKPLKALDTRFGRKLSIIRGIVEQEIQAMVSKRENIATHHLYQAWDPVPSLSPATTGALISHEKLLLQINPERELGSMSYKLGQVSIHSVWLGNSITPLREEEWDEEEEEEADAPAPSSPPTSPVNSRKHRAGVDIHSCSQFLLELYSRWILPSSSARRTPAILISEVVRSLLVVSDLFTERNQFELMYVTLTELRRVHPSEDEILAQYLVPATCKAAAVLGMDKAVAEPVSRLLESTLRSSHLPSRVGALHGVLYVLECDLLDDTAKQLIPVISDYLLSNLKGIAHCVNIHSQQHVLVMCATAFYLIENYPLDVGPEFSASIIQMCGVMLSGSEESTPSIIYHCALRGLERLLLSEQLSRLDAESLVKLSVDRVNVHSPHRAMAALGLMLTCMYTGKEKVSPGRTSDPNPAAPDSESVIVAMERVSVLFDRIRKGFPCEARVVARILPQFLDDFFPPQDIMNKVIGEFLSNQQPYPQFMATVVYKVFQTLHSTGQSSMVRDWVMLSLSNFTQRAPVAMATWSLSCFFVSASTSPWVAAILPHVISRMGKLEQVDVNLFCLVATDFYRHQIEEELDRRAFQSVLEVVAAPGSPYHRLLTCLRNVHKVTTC

SQSTM1/p62 = SQSTM1/p62 level in mouse cortices after ip injection; format: in vivo; settings: HD mice
Method: Using a method similar to 6.2, Hdh^Q140/Q7 mice were administered with injections. A method similar to 7.1 was used to detect the effects of ip-injection of compounds on other known autophagy selective substrate proteins (SQSTM1/p62) in the cortical tissue of Hdh^Q140/Q7 mice.

[1] = target: T5, binding between HTTexon1-Q25-MBP and LC3B (Homo sapiens, UniProt Q9GZQ8); assay: In vitro pull-down HTTexon1-Q25-MBP and LC3B; format: biochemical; settings: 1 μM compound 1 or 100 nM compound 4
T5 construct: His8 (N, cleaved yes); GST (from pGEX-6P1) (N, cleaved yes); made in house; LC3B: E. coli BL21(DE3)pLsyS
Method: Incubation was conducted. Then the unbound proteins were removed.
(3) The resin-bound proteins were eluted and analyzed by SDS-PAGE and Western-blots with anti-LC3 antibody (FIG. 22a).

Q46-GFP = assay: OI-RD affinity reaction parameters with Q46-GFP; format: binding
Text: (1) PolyQ-GFP cDNA sequence (expressing Met-polyQ-GFP, wherein polyQ was Q72 or Q25) was synthesized de novo and subcloned into pcDNA vector. […] And the same method was used to obtain cells expressing Q53-GFP, cells expressing Q46-GFP, and cells expressing Q38-GFP.

MBP-ATXN3-Q28 [2] = target: T6, MBP-ATXN3-Q28 (Homo sapiens, UniProt P54252, INS305QQQQQQQQQQQQQQQQQQ); assay: OI-RD affinity screening with MBP-ATXN3-Q28; format: binding; settings: OI-RD difference images
T6 construct: His8 with TEV protease cleavage site; made in house; host or cells: Escherichia coli Rosetta(DE3)pLsyS
T6 sequence (P54252 with tags, fused parts or gaps isoform P54252-4 with the stated changes): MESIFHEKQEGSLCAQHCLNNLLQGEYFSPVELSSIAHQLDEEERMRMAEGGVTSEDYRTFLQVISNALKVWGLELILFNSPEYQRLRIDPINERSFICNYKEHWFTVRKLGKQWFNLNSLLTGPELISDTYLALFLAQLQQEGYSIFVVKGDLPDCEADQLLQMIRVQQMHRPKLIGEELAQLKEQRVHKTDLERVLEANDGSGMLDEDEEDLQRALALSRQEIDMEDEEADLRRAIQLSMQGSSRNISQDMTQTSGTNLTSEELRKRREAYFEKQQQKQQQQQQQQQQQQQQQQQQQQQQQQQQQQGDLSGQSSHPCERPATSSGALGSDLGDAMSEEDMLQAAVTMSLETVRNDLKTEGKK
Method: (§1) Screening was conducted using a method similar to 1.1, except for that the target protein HTTexon1-Q72-MBP in step (1) of 1.1 was replaced with MBP-ATXN3-Q68 and the target protein HTTexon1-Q25-MBP in step (2) of 1.1 was replaced with MBP-ATXN3-Q28, to obtain compounds that can selectively bind to ATXN3 with abnormally expanded polyQ (MBP-ATXN3-Q68).

MBP-ATXN3-Q28 [3] = target: T6, MBP-ATXN3-Q28; assay: MST affinity with MBP-ATXN3-Q28; format: binding
Method: Protein concentration was 500 nM.

[4] = target: T7, wild-type ATXN3 protein (ATXN3-Q27) (Homo sapiens, UniProt P54252, G306R/INS305QQQQQQQQQQQQQQQQQ/V212M); assay: Western-blot wild-type ATXN3 level in fibroblasts; format: cell-based; settings: 100 nM (compound 4: 50 nM), 2 days
T7 construct: endogenous in cells; host or cells: wild-type fibroblasts (Q27) and/or the normal allele in SCA3 patient fibroblasts
T7 sequence (P54252 with tags, fused parts or gaps isoform P54252-1 with the stated changes): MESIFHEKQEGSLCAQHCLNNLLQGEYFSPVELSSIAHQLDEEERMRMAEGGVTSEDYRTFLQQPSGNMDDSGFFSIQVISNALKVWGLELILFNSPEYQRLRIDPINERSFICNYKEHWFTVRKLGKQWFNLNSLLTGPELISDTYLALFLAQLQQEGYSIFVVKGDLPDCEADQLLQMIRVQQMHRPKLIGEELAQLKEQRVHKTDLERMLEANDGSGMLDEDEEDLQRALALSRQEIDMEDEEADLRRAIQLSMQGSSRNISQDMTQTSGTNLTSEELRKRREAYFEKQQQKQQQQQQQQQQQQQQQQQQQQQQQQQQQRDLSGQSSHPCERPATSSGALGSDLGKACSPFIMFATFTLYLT
Method: Then the levels of mutant ATXN3 protein (ATXN3-Q74, SEQ ID NO: 2) and wild-type ATXN3 protein (ATXN3-Q27, SEQ ID NO: 7) were determined by Western-blots (FIG. 26). […] Therefore, the compound of the present invention can be used to treat SCA3.

His-ATXN1-Q92 = target: T8, His-ATXN1-Q92 (Homo sapiens, UniProt P54253, INS208QQQQQQQQQQQQQQQQQQQQQQQQQQQQQQQQQQQQQQQQQQQQQQQQQQQQQQQQQQQQQQQQQQQQQQQQQQQQQQQQ); assay: OI-RD affinity screening with His-ATXN1-Q92; format: binding; settings: OI-RD difference images
T8 construct: made in house; host or cells: HEK293T cells (ATCC, CRL-3216)
T8 sequence (P54253 with tags, fused parts or gaps with the stated changes): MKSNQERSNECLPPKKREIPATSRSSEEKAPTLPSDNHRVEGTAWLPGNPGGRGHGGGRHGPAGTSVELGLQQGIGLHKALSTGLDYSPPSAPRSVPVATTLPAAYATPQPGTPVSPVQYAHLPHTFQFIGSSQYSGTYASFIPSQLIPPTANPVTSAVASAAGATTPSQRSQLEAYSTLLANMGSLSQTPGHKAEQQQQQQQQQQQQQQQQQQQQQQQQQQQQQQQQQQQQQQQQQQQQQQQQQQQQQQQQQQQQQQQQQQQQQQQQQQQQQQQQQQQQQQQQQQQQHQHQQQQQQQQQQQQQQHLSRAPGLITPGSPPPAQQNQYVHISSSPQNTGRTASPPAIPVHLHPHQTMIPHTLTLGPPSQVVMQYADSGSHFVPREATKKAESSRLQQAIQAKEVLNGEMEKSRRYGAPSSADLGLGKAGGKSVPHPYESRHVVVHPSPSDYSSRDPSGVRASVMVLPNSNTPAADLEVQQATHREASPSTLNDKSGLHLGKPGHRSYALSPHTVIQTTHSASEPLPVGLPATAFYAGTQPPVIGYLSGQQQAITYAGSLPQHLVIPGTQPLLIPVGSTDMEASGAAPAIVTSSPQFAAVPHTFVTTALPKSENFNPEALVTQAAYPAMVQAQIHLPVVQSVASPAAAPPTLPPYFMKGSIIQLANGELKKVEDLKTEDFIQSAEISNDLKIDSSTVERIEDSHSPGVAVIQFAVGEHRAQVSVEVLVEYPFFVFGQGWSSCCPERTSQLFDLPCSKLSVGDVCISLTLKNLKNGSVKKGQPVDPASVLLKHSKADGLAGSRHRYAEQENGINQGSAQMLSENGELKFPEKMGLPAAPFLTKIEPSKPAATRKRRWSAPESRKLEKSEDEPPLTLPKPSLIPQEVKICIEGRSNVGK
Method: (1) PolyQ-ATXN1 cDNA (where polyQ is Q92) was synthesized de novo and subcloned into pcDNA vector. It transfected into HEK293T cells (ATCC, CRL-3216) to obtain cells expressing His-ATXN1-Q92 (SEQ ID NO: 3 with a His tag at the N-terminal).
(2) The His-ATXN1-Q92 expressed in (1) was purified to obtain ATXN1 with abnormally expanded polyQ.
To identify compound(s) that can bind to ATXN1 with abnormally expanded polyQ, screening was conducted using a method similar to step (1) of 1.1, except for that the target protein HTTexon1-Q72-MBP in step (1) of 1.1 was replaced with His-ATXN1-Q92.

MBP-ATXN3-Q68 = MBP-ATXN3-Q68 (Homo sapiens, UniProt P54252, INS305QQQQQQQQQQQQQQQQQQQQQQQQQQQQQQQQQQQQQQQQQQQQQQQQQQQQQQQQQQ); assay: OI-RD affinity screening with MBP-ATXN3-Q68; format: binding; parameters: His8 with TEV protease cleavage site; made in house; host or cells: Escherichia coli Rosetta(DE3)pLsyS; settings: OI-RD difference images
Method: as §1

T1 sequence (P42858 with tags, fused parts or gaps DUP35-38): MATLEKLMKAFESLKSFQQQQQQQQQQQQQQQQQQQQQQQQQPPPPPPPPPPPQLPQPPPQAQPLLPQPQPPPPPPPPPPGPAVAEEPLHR

O=C1Nc2ccc(I)cc2/C1=C/c1cc(Br)c(O)c(Br)c1 [compound 1, GW5074]
binding to HTTexon1-Q25 (HTTexon1-Q25-MBP): do not bind | Kd (LC3B): 4.76 µM | wtHTT levels (wtHTT): did not reduce wtHTT levels | mHTT levels (mHTT; 2B7/MW1): Decreased mHTT levels were observed | mHTT levels (mHTT; presence of the autophagy inhibitor NH4Cl): this effect was not observed | level of SQSTM1/p62 in the cortices (SQSTM1/p62): did not change | binding between HTTexon1-Q25-MBP and LC3B [1]: but not between HTTexon1-Q25-MBP and LC3B | Kd (Q46-GFP): 0.0602 µM | Koff (Q46-GFP): 0.000305 s⁻¹ | Kon (Q46-GFP): 0.000304 min/nM | binding to MBP-ATXN3-Q28 (MBP-ATXN3-Q28 [2]): did not bind | binding affinity with normal ATXN3 protein (MBP-ATXN3-Q28) (MBP-ATXN3-Q28 [3]): no binding affinity | wild-type ATXN3 protein level [4]: no decrease in wild-type ATXN3 protein level was observed | binding to His-ATXN1-Q92 (His-ATXN1-Q92): can bind | binding to MBP-ATXN3-Q68 (MBP-ATXN3-Q68): binded
